Patent US10040839B2, “Insulin derivatives and the medical uses hereof” (Novo Nordisk A/S, priority 2014, dated 2018)

Experiments:
solubilised human IR-A [1] = target: T1, solubilised human IR-A (Homo sapiens, UniProt P06213); test: Insulin receptor affinity on solubilised receptors, SPA competition binding, 0% HSA; settings: solubilised cloned human insulin receptor A isoform, % relative to human insulin
T1 construct: made in house; host or cells: baby hamster kidney (BHK) cells overexpressing the IR-A holoreceptor
T1 sequence (P06213 28-746 isoform P06213-2 limits assumed): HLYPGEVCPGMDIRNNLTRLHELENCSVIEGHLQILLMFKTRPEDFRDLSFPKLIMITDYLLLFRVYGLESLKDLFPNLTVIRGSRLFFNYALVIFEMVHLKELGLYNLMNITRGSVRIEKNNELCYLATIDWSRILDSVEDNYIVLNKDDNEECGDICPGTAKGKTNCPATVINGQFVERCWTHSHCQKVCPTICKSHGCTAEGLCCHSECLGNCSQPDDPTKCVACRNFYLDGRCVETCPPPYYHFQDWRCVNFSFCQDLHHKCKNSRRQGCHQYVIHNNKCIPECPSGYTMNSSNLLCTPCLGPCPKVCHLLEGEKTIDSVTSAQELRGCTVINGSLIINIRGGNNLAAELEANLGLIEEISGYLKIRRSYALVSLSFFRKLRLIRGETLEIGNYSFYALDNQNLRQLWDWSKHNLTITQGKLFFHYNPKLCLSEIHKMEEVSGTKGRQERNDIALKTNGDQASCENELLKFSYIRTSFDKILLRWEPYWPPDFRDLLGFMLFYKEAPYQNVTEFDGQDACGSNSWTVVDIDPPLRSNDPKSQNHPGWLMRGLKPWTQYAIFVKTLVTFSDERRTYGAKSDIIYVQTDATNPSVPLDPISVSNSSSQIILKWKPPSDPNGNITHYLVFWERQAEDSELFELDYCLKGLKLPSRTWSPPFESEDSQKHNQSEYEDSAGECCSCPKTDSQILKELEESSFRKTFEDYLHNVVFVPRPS
T1 sequence (P06213 763-1382 partner limits assumed): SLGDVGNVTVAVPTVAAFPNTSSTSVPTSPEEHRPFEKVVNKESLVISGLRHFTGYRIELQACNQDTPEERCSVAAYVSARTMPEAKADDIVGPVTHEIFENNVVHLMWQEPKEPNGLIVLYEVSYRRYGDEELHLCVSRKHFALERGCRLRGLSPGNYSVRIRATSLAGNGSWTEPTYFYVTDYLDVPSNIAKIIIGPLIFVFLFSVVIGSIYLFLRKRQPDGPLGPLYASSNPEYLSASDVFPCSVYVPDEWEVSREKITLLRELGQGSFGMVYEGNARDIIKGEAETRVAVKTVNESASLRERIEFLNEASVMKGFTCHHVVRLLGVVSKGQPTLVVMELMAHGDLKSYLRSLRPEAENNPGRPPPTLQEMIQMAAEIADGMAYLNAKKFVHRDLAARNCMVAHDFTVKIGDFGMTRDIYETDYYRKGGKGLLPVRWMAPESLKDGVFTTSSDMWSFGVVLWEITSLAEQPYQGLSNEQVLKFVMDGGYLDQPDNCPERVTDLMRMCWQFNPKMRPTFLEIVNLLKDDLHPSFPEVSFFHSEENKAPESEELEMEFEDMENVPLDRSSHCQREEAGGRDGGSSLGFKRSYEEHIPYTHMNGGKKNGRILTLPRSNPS

[2] = target: T2, membrane-associated human IR-A (Homo sapiens, UniProt P06213); test: Insulin receptor affinity on membrane-associated receptors, SPA competition binding
T2 construct: expressed in transfected cells; host or cells: BHK cells stably transfected with pZem219B vector (plasma membrane preparation)
T2 sequence (P06213 28-746 isoform P06213-2 limits assumed): as the sequence (P06213 28-746 isoform P06213-2 limits assumed) above
T2 sequence (P06213 763-1382 partner limits assumed): as the sequence (P06213 763-1382 partner limits assumed) above
Procedure: (§1) Membrane-associated human IR and IGF-1R are purified from BHK cells stably transfected with the pZem219B vector containing either the human IR-A, IR-B or IGF-IR insert. BHK cells are harvested and homogenized in ice-cold buffer (25 mM HEPES pH 7.4, 25 mM CaCl2 and 1 mM MgCl2, 250 mg/L bacitracin, 0.1 mM Pefablock). […] The pellets are re-suspended in a minimal volume of buffer and drawn through a needle (size 23) three times before storage at −80° C. until usage.
(§2) The relative binding affinity for either of the membrane-associated human IR-A, IR-B or IGF-1R is determined by competition binding in a SPA setup. IR assays are performed in duplicate in 96-well OptiPlates (Perkin-Elmer Life Sciences). […] Assays are terminated by centrifugation of the plate at 2000 rpm for 2 minutes and bound radioactivity quantified by counting on a TopCount NXT (Perkin-Elmer Life Sciences).
(§3) IGF-1R assays are conducted essentially as for the IR binding assays except that membrane-associated IGF-1R and 50 pM [^125 I-Tyr31]-human IGF-1 were employed.

[3] = target: T3, membrane-associated human IGF-1R (Homo sapiens, UniProt P08069); test: IGF-1 receptor affinity on membrane-associated receptors, SPA competition binding; settings: membrane-associated cloned human IGF-1R, % relative to human insulin
T3 construct: expressed in transfected cells; host or cells: BHK cells stably transfected with pZem219B vector (plasma membrane preparation)
T3 sequence (P08069 31-736 limits assumed): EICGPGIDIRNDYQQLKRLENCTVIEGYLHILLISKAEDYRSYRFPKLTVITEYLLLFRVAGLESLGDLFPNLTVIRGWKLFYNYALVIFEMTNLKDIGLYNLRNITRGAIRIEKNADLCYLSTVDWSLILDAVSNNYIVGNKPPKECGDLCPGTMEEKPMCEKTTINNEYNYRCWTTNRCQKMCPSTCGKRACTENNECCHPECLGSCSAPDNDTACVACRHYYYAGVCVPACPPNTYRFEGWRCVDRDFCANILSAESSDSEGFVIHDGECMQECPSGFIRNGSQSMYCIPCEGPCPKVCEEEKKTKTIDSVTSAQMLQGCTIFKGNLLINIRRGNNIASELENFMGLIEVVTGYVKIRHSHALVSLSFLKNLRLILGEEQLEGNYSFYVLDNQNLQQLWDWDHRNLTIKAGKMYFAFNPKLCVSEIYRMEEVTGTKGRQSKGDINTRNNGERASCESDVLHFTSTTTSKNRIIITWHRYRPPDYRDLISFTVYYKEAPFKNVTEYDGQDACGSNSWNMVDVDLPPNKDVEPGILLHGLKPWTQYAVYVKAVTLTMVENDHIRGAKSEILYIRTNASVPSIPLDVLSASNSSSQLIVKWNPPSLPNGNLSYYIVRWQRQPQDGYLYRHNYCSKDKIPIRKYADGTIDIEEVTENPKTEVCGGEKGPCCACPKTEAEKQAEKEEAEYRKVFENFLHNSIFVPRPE
T3 sequence (P08069 741-1367 partner limits assumed): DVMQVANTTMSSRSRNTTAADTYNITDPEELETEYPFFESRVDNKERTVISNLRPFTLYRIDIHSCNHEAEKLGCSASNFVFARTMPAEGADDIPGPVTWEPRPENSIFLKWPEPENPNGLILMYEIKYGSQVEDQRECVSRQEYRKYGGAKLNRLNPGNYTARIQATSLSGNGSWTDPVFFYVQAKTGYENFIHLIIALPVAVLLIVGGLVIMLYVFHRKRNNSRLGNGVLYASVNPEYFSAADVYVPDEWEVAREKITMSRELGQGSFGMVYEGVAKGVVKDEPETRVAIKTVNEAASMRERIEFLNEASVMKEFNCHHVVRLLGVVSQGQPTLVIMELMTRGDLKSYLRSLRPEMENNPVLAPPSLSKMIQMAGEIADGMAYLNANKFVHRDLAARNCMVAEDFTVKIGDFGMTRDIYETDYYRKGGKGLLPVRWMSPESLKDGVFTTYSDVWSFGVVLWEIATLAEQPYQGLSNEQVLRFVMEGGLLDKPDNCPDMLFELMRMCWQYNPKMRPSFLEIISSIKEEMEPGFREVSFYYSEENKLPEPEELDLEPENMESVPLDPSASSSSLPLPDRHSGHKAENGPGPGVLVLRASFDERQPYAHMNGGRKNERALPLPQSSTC
Procedure: as §1, §2, §3

solubilised human IR-A [4] = target: T1, solubilised human IR-A; test: Insulin receptor affinity on solubilised receptors, SPA competition binding, binding buffer with […] HSA; settings: solubilised cloned human insulin receptor A isoform, % relative to human insulin

Substance: A22K(N(Eps)-Tetradecanedioyl-2×OEG), desB27, B29R, desB30 Human Insulin [Example 17]
- Relative IR-A affinity (@ 0% HSA) (solubilised human IR-A [1]): 241.7%
- Relative IR-A affinity (@ 0.1% HSA) ([2]; membrane-associated cloned human IR-A, 0.1% HSA, % relative to human insulin): 117.3%
- IR IGF1 ratio ([2]; ratio of IR-A to IGF-1R affinities from membrane-associated receptors): 0.21
- Relative IGF-1R affinity (@ 0.1% HSA) [3]: 546.4%
- Relative IR-A affinity (@ […] HSA) (solubilised human IR-A [4]): 117.9%
